From patent US10669272B2, “Substituted naphthyridinone compounds useful as T cell activators” (BRISTOL-MYERS SQUIBB COMPANY, priority 2018, dated 2020)
Like-named read-outs stand apart in the source and are kept apart here.

What was measured:
human DGKα = target: T1, human DGKα (Homo sapiens, UniProt P23743); test: DGKα LIPGLO assay (extruded liposome substrate), in vitro DGK inhibition; format: biochemical; conditions: read-out: DGKa LIPGLO IC50
T1 construct: TVMV protease cleavage site (C); Hexa-His (C); made in house; host or cells: Sf9 insect cells (baculovirus, Bac-to-Bac)

human DGKζ = target: T2, human DGKζ (Homo sapiens, UniProt Q13574); test: DGKζ LIPGLO assay (extruded liposome substrate), in vitro DGK inhibition; format: biochemical; conditions: read-out: DGKz LIPGLO IC50
T2 construct: TVMV protease cleavage site (C); Hexa-His (C); made in house; host or cells: Sf9 insect cells (baculovirus, Bac-to-Bac)

Human venous whole blood = test: Human whole blood IFN-γ assay; format: cell-based; conditions: human whole blood, read-out: INFg Whole Blood Normalized Agonist EC50;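 further: blood from healthy donors exposed to compound for 1 h before stimulation with anti-CD3 and anti-CD28 at 1 µg/mL each, IFN-γ quantified in supernatant by AlphaLISA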
Experimental: Human Whole Blood IFN-γ Assay
Human venous whole blood (22.5 μL per well), obtained from healthy donors, was pre-treated with compounds for one hour at 37° C. in a humidified 95% air/5% CO2 incubator. The blood was stimulated with 2.5 μL anti-human CD3 and anti-CD28 mAb at a final concentration of 1 μg/mL each for 24 hours at 37° C. IFN-γ in the supernatants was measured using AlphLISA kit (Cat # AL217).

[1] = Homo sapiens, 24 h, normalized to 3 μM reference compound with anti-CD3 plus anti-CD28 as 100% activation
[2] = normalized to 3 μM reference compound with anti-CD3 plus anti-CD28 as 100% activation
[3] = anti-CD3 plus anti-CD28, 24 hours, 3 μM reference compound = 100% activation
[4] = Homo sapiens, 24 h, anti-CD3 plus anti-CD28, 24 hours, 3 μM reference compound = 100% activation

T2 sequence (Q13574 with tags, fused parts or gaps isoform Q13574-4): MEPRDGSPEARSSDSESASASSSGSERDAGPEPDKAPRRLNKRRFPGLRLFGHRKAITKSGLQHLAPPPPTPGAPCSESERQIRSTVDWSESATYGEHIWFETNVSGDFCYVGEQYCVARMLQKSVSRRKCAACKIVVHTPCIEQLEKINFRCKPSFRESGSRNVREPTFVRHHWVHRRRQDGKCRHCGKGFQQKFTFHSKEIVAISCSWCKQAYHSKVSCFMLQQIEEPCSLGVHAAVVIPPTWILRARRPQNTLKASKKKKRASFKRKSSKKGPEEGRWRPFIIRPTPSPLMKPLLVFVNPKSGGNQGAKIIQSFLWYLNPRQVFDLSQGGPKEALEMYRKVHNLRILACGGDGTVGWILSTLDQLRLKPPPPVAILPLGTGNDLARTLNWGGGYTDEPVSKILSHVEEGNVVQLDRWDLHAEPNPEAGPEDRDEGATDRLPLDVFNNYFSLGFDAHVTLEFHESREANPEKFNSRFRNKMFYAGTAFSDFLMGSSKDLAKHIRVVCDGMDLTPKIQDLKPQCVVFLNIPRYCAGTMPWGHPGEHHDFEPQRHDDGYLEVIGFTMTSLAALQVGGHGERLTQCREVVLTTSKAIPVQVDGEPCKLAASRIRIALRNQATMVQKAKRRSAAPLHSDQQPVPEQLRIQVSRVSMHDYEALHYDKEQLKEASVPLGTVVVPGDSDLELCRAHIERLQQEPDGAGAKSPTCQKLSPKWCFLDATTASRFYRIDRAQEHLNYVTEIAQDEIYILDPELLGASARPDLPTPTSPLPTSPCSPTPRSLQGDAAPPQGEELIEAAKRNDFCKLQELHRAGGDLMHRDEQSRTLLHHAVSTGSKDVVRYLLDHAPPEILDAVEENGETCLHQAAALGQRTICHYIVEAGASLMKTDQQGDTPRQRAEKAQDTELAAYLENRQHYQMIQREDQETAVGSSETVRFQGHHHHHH
T1 sequence (P23743 with tags, fused parts or gaps): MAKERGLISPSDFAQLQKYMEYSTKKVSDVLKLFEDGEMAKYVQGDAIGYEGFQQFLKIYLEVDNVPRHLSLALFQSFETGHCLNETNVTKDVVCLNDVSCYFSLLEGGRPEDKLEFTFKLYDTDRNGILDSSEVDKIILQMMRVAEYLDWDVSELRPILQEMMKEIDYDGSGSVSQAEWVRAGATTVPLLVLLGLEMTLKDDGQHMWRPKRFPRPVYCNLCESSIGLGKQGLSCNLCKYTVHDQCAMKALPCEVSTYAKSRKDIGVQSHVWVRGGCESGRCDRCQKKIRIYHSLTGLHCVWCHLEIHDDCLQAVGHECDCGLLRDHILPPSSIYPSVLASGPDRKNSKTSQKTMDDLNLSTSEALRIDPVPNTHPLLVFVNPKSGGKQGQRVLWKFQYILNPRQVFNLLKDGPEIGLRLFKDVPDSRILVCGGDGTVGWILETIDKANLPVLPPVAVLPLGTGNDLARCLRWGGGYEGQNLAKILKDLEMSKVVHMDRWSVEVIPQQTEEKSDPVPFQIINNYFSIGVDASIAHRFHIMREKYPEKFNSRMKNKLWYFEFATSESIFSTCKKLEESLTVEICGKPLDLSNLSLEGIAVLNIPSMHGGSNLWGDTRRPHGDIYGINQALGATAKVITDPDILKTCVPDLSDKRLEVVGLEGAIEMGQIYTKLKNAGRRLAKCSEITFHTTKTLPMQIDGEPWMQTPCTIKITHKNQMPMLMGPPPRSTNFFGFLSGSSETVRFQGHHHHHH

| Compound | IC50 (human DGKα; liposome (LIPGLO) assay) [nM] | IC50 (human DGKζ; liposome (LIPGLO) assay) [nM] | EC50 (Human venous whole blood; [1]) [nM] | EC50 (Human venous whole blood; [2]) [nM] | IC50 (human DGKα; DGKα liposome (LIPGLO) assay) [nM] | IC50 (human DGKζ; DGKζ liposome (LIPGLO) assay) [nM] | EC50 (Human venous whole blood; [3]) [nM] | EC50 (Human venous whole blood; [4]) [nM] |
| --- | --- | --- | --- | --- | --- | --- | --- | --- |
| C[C@@H]1CN(c2c(F)c(=O)n(C)c3ccc(C#N)nc23)[C@@H](C)CN1C(c1ccc(F)cc1)c1ccccc1F (stereo partly drawn) [Example 333, 7-fluoro-8-((2S,5R)-4-((2-fluorophenyl)(4-fluorophenyl)methyl)-2,5-dimethylpiperazin-1-yl)-5-methyl-6-oxo-5,6-dihydro-1,5-naphthyridine-2-carbonitrile] | 830 | 1100 | 1200 |  |  |  |  |  |
| C[C@@H]1CN(c2cc(=O)n(C)c3ccc(C#N)nc23)[C@@H](C)CN1C(c1ccc(F)cc1)c1cccc(S(C)(=O)=O)c1 (single isomer, unassigned) [Example 689] | 7600 | 3000 |  | 1500 |  |  |  |  |
| Cc1noc(C)c1CN1C[C@H](C)N(c2cc(=O)n(C)c3ccc(C#N)nc23)C[C@H]1C [Example 1426] | 33000 | 4000 | 20000 |  |  |  |  |  |
| CC[C@@H]1CN(c2cc(=O)n(C)c3ccc(C#N)nc23)[C@@H](C)CN1C(c1ccc(F)cc1)c1nc(C2CC2)no1 (stereo partly drawn) [Example 1117] | 15 | 17 | 150 |  |  |  |  |  |
| CC[C@@H]1CN(c2c(F)c(=O)n(C)c3ccc(C#N)nc23)[C@@H](C)CN1C(C)c1ccc(OC(F)(F)F)cc1 (single isomer, unassigned) [Example 1328] | 4900 | 1500 | 3400 |  |  |  |  |  |
| C[C@@H]1CN(c2c(C#N)c(=O)n(C)c3ccc(C#N)nc23)[C@@H](C)CN1C(c1ccc(F)cc1)c1csc(C2CC2)n1 (single isomer, unassigned) [Example 858] |  |  |  |  | 480 | 150 | 1700 |  |
| CC[C@H]1CN(C(C)c2ccc(F)cc2)[C@H](C)CN1c1cc(=O)n(C)c2ccc(C#N)nc12 (single isomer, unassigned) [Example 1136] | 1100 | 11000 |  | 2300 |  |  |  |  |
| Cc1cccc(C(c2cccc(F)c2)N2C[C@H](C)N(c3cc(=O)n(C)c4ccc(C#N)nc34)C[C@H]2C)n1 (single isomer, unassigned) [Example 470] | 13000 | 2000 | 370 |  |  |  |  |  |
| CC(c1ccccc1OC(F)(F)F)N1C[C@H](C)N(c2cc(=O)n(C)c3ccc(C#N)nc23)C[C@H]1C (single isomer, unassigned) [Example 1213] | 56000 | 3600 |  | 8400 |  |  |  |  |
| Cc1ccc(C(c2cncc(F)c2)N2C[C@H](C)N(c3cc(=O)n(C)c4ccc(C#N)nc34)C[C@H]2C)cc1 (single isomer, unassigned) [Example 416] | 21000 | 14000 |  | 5200 |  |  |  |  |
| COCC(F)(F)C(c1ccc(F)cc1)N1C[C@H](C)N(c2cc(=O)n(C)c3ccc(C#N)nc23)C[C@H]1C (single isomer, unassigned) [Example 1313] | 2200 | 5300 | 4800 |  |  |  |  |  |
| C[C@@H]1CN(c2c(C#N)c(=O)n(C)c3ccc(C#N)nc23)[C@@H](C)CN1C(c1ccc(F)cc1)c1ccc(F)cn1 (stereo partly drawn) [Example 828] |  |  |  |  | 4200 | 16000 | 2700 |  |
| CC(c1ccc(OC(F)F)cn1)N1C[C@H](C)N(c2cc(=O)n(C)c3ccc(C#N)nc23)C[C@H]1C (single isomer, unassigned) [Example 1224] | 41 | 1400 |  | 1800 |  |  |  |  |
| COC[C@@H]1CN(c2cc(=O)n(C)c3ccc(C#N)nc23)[C@@H](C)CN1C(c1ccc(F)cc1)c1ccon1 (single isomer, unassigned) [Example 1399] | 160 | 450 |  | 3000 |  |  |  |  |
| CC1CN(C(c2ccc(F)cc2)c2nc(C(C)(C)C)no2)C(C)CN1c1c(C#N)c(=O)n(C)c2ccc(C#N)nc12 (single isomer, unassigned) [Example 862] |  |  |  |  | 290 | 600 |  | 1200 |
| CCc1ccccc1C(c1ccc(F)cc1)N1CCN(c2c(C#N)c(=O)n(C)c3ccc(C#N)nc23)C[C@H]1C (stereo partly drawn) [Example 877] |  |  |  |  | 5100 | 240 | 6000 |  |
| COC(=O)c1cccc(C(C)N2CCN(c3c(C#N)c(=O)n(C)c4ccc(C#N)nc34)C[C@H]2C)c1 (single isomer, unassigned) [Example 983] |  |  |  |  | 3500 | 7200 | 13000 |  |
| C[C@@H]1CN(c2c(C#N)c(=O)n(C)c3ccc(C#N)nc23)CCN1C(c1cccc(F)c1)c1ccc(C(F)(F)F)cn1 (single isomer, unassigned) [Example 948] |  |  |  |  | 600 | 310 | 340 |  |
| C[C@@H]1CN(c2cc(=O)n(C)c3ccc(C#N)nc23)[C@@H](C)CN1C(c1ccc(F)cc1)c1cccc(F)c1 (stereo partly drawn) [Example 293, 8-[(2S,5R)-4-[(3-fluorophenyl)(4-fluorophenyl)methyl]-2,5-dimethylpiperazin-1-yl]-5-methyl-6-oxo-5,6-dihydro-1,5-naphthyridine-2-carbonitrile] | 330 | 160 |  | 460 |  |  |  |  |
| CC[C@@H]1CN(c2cc(=O)n(C)c3ccc(C#N)nc23)[C@@H](C)CN1Cc1ccccc1 [Example 1076] | 110 | 1000 | 1700 |  |  |  |  |  |
| C[C@@H]1CN(c2c(C#N)c(=O)n(C)c3ccc(C#N)nc23)CCN1C(c1ccc(F)cc1)c1cccc2c1OC(F)(F)O2 (single isomer, unassigned) [Example 939] |  |  |  |  | 83000 | 4000 |  | 2600 |
| C[C@@H]1CN(c2c(C#N)c(=O)n(C)c3ccc(C#N)nc23)[C@@H](C)CN1C(c1ccc(Cl)cc1)c1ccc(Cl)cc1 [Example 805] |  |  |  |  | 11000 | 1700 |  | 9800 |
| CC(c1c(F)cccc1F)N1CCN(c2c(C#N)c(=O)n(C)c3ccc(C#N)nc23)C[C@H]1C (single isomer, unassigned) [Example 950] |  |  |  |  | 210 | 370 | 3800 |  |
| C[C@@H]1CN(c2cc(=O)n(C)c3ccc(C#N)nc23)[C@@H](C)CN1C(c1ccc(F)cc1)c1cscn1 (stereo partly drawn) [Example 721] |  |  |  |  | 72 | 1100 | 3500 |  |
| CC(c1cc(OC(F)(F)F)ccc1F)N1C[C@H](C)N(c2cc(=O)n(C)c3ccc(C#N)nc23)C[C@H]1C (stereo partly drawn) [Example 1203] | 3000 | 1600 |  | 20000 |  |  |  |  |
| CC(C)c1nc(CN2C[C@H](C)N(c3cc(=O)n(C)c4ccc(C#N)nc34)C[C@H]2C)no1 [Example 1432] | 2100 | 7700 | 20000 |  |  |  |  |  |
| CC[C@@H]1CN(c2cc(=O)n(C)c3ccc(C#N)nc23)[C@@H](C)CN1C(C)c1ccc(C#N)cc1 (single isomer, unassigned) [Example 1346] | 52 | 450 |  | 6000 |  |  |  |  |
| CC[C@H]1CN(C(C)c2ccc(OC(F)F)cc2)[C@H](C)CN1c1cc(=O)n(C)c2ccc(C#N)nc12 (single isomer, unassigned) [Example 1379] | 8.8 | 160 |  | 510 |  |  |  |  |
| COC[C@@H]1CN(c2cc(=O)n(C)c3ccc(C#N)nc23)[C@@H](C)CN1Cc1cc(F)c(F)c(F)c1 [Example 1161] | 18000 | 330 | 15000 |  |  |  |  |  |
| CC[C@@H]1CN(c2cc(=O)n(C)c3ccc(C#N)nc23)[C@@H](C)CN1C(c1ccc(OC(F)(F)F)cc1)c1ccccn1 (single isomer, unassigned) [Example 341] | 69 | 550 |  | 120 |  |  |  |  |
